# Patent US20190069552A1, “METHOD TO CONTROL PYRIMETHANIL TOLERANT FUNGI” (Janssen Pharmaceutica NV, priority 2016, published 2019)
# Legend:
# [1] = tested on: Penicillium expansum strain PE110014, pyrimethanil-resistant; assay: Poison plate assay on glucose agar, strain PE110014; type: cell-based
# Procedure: (§1) • Name of component (I): pyrimethanil • Name of component (II): hexanoic acid (=CH3—(CH2)n—COOH wherein n is 4) • Test setup: to each well of a 24-well microtiter plate, 2 ml of Glucose Agar (GA: 10 g glucose, 1.5 g K2HPO4, 2 g KH2PO4, 1 g (NH4)2SO4, 0.5 g MgSO4 and 12.5 g agar in 1 litre deionised water) is added. The test compounds pyrimethanil as well as an alkane carboxylic acid (II) are dissolved in DMSO at the appropriate concentration and added to the liquid agar in a 5 μl droplet each. The nutrient medium is inoculated with the test fungi by adding 2.5 µl of a spore/mycelium suspension. The microwell plates are then incubated in the dark at 20° C. and 60% relative humidity. The growth of the fungi is evaluated after two weeks, when the growth diameter of untreated controls has reached 15 mm.
# (§2) After a suitable incubation period, colony diameters on the agar are measured. Percentage growth (not % effect, see below) is then calculated for each treatment by comparing the colony diameter with the diameter for untreated controls (which is 15 mm).
# (§3) The effect of adding an alkane carboxylic acid of formula CH3—(CH2)n—COOH (wherein n is 4 to 7) to restore sensitivity of pyrimethanil-resistant or pyrimethanil-tolerant fungi to pyrimethanil was calculated using the Colby synergy formula (Colby S. R., Weeds (1967), 15(1), 20-22).
# (§4) When a is the % growth (not the % activity) still observed under treatment with compound A alone at a given concentration and b is the % growth still observed under treatment with compound B alone at a given concentration, the expected growth exp under treatment with the combination of both compounds at the same concentrations is:
# (§5) When the observed growth of the test pathogens under the combination is less than the expected growth, there is synergy.
# [2] = tested on: Penicillium expansum strain PE110030, pyrimethanil-resistant; assay: Poison plate assay on glucose agar, strain PE110030; type: cell-based
# Procedure: as §1, §2, §3, §4, §5
# [3] = tested on: Penicillium expansum strain PE110048, pyrimethanil-resistant; assay: Poison plate assay on glucose agar, strain PE110048; type: cell-based
# Procedure: as §1, §2, §3, §4, §5
# [4] = tested on: Penicillium expansum PE110091 (pyrimethanil-tolerant); assay: Treatment of fruit (curative dip, Bio-apple Elstar); type: in vivo; details: for % effect after 6 days (observed) / % effect after 9 days (observed): apple Elstar, curative
# Procedure: untreated apples or pears (details below), inoculated with fungal pathogens by wounding the fruits with a contaminated pricker on two spots, and incubated at 20° C. and 96% relative humidity.
# Curative: fruits are first infected with a pricker and treated by dipping four hours later.
# After a suitable incubation period, the diameters of the infected spots are measured with a calliper. The average diameter is calculated for all spots in the same treatment (between 14 and 40 spots per treatment, see below). Percentage effect of the treatment is then calculated by comparing the average spot diameter with the average for untreated controls.
# The effect of adding an alkane carboxylic acid of formula CH3—(CH2)n—COOH (wherein n is 4 to 7) to restore sensitivity of pyrimethanil-resistant or pyrimethanil-tolerant fungi to pyrimethanil was calculated using the Limpel synergy formula (Limpel, L. E. et al. (1962) “Weed control by dimethyl tetrachloroterephthalate alone and in certain combinations”, Proceedings of the N. E. Weed Control Conference 16: 48-53). When a is the % effect obtained by compound A alone at a given concentration and b is the % effect obtained by compound B alone at a given concentration, the expected effect e of the combination of both compounds at the same concentrations is:
# Pyrimethanil was added to tap water as a 40% commercially available PENBOTEC 400SC formulation to obtain a concentration of 100 ppm pyrimethanil. The alkanoic acid was added to tap water to obtain a 2000 ppm solution, or the alkanoic acid was added to the pyrimethanil composition with a concentration of 2000 ppm.
# Fruit: Bio-apple “Elstar”
# Pathogen: Penicillium expansum PE110091 (pyrimethanil-tolerant)
# Repeats: Two wounds per fruit, 15 fruits per treatment
# Evaluations: 17 March (6 days), 20 March (9 days) Average rot diameter untreated: 6 days: 21.3 mm 9 days: 36.0 mm
# [5] = tested on: Penicillium expansum strain PE110014; assay: Pyrimethanil sensitivity of strain PE110014; type: cell-based; details: strain PE110014, pyrimethanil-resistant
# [6] = tested on: Penicillium expansum strain PE110030; assay: Pyrimethanil sensitivity of strain PE110030; type: cell-based; details: strain PE110030, pyrimethanil-resistant
# [7] = tested on: Penicillium expansum strain PE110048; assay: Pyrimethanil sensitivity of strain PE110048; type: cell-based; details: strain PE110048, pyrimethanil-resistant
# [8] = tested on: Penicillium expansum PE110101; assay: Pyrimethanil sensitivity of strain PE110101; type: cell-based; details: strain PE110101, pyrimethanil-sensitive
# [9] = tested on: Penicillium expansum PE110091; assay: Pyrimethanil sensitivity of strain PE110091; type: cell-based; details: strain PE110091, pyrimethanil-tolerant
# [10] = hexanoic acid alone at 250, 500 and 750 ppm
# [11] = pyrimethanil 10 ppm alone, two weeks
# [12] = pyrimethanil 100 ppm alone (PENBOTEC 400SC)
smiles,measurement,setting,value
CCCCCC(=O)O [hexanoic acid],% growth (observed),[1]; hexanoic acid 250 ppm alone,100%
same,% growth (observed),[1]; hexanoic acid 500 ppm alone,100%
same,% growth (observed),[1]; hexanoic acid 750 ppm alone,100%
same,fungicidal effect (in words),[1]; [10],no fungicidal effect
same,% growth (observed),[2]; hexanoic acid 250 ppm alone,100%
same,% growth (observed),[2]; hexanoic acid 500 ppm alone,100%
same,% growth (observed),[2]; hexanoic acid 750 ppm alone,100%
same,fungicidal effect (in words),[2]; [10],no fungicidal effect
same,% growth (observed),[3]; hexanoic acid 250 ppm alone,100%
same,% growth (observed),[3]; hexanoic acid 500 ppm alone,100%
same,% growth (observed),[3]; hexanoic acid 750 ppm alone,100%
same,fungicidal effect (in words),[3]; [10],no fungicidal effect
same,fungicidal effect (in words),"[4]; PE110091 on apple, hexanoic acid alone at 2000 ppm",little fungicidal effect
same,% effect after 6 days (observed),[4]; hexanoic acid 2000 ppm alone,15%
same,% effect after 9 days (observed),[4]; hexanoic acid 2000 ppm alone,6%
"Cc1cc(C)nc(Nc2ccccc2)n1 [pyrimethanil, 4,6-dimethyl-N-phenyl-2-pyrimidinamine]",% growth (observed),[1]; [11],67%
same,% growth (observed),[2]; [11],80%
same,% growth (observed),[3]; [11],53%
same,% effect after 6 days (observed),[4]; [12],19%
same,% effect after 9 days (observed),[4]; [12],12%
same,EC50,[5],15.40 ppm
same,EC95,[5],> 100 ppm
same,EC50,[6],16.38 ppm
same,EC95,[6],> 100 ppm
same,EC50,[7],22.39 ppm
same,EC95,[7],> 100 ppm
same,EC50,[8],0.29 ppm
same,EC95,[8],0.88 ppm
same,EC50,[9],5.01 ppm
same,EC95,[9],74.99 ppm
